Measured values published in US20070128217A1 (priority 2003, published 2007).

Tests used:
[1] = tested on: antibodies in sera from SARS patients (sera 1a, 1b, 2, 6, 37, 62, London, SARS-yellow, SARS-green); assay type: binding, human; design: Binding of serum 6 to linear peptides of protein X1 of SARS-CoV Urbani / Binding of serum 37 to linear peptides of protein X1 of SARS-CoV Urbani / Binding of serum 6 to looped/cyclic peptide (PEPSCAN-ELISA) / Binding of serum 37 to looped/cyclic peptide (PEPSCAN-ELISA) / Binding of serum 37 to looped/cyclic peptides of protein X1 of SARS-CoV Urbani / Binding of serum 6 to linear peptides of protein X2 / Binding of serum 37 to linear peptides of protein X2 / Binding of serum 37 to looped/cyclic peptides of protein X2 of SARS-CoV Urbani / Binding of serum 6 to linear peptides of protein M of SARS-CoV Urbani / Binding of serum 37 to linear peptides of protein M of SARS-CoV Urbani / Binding of serum 6 to looped/cyclic peptides of protein M of SARS-CoV Urbani / Binding of serum 37 to looped/cyclic peptides of protein M of SARS-CoV Urbani / Binding of serum 6 to linear peptides of protein X3 of SARS-CoV Urbani / Binding of serum 37 to linear peptides of protein X3 of SARS-CoV Urbani / Binding of serum 37 to looped/cyclic peptides of protein X3 of SARS-CoV Urbani / Binding of serum 6 to linear peptides of protein X4 of SARS-CoV Urbani / Binding of serum 37 to linear peptides of protein X4 of SARS-CoV Urbani / Binding of serum 37 to looped/cyclic peptides of protein X4 of SARS-CoV Urbani / Binding of serum 6 to linear peptides of protein X5 of SARS-CoV Urbani / Binding of serum 37 to linear peptides of protein X5 of SARS-CoV Urbani / Binding of serum 37 to looped/cyclic peptides of protein X5 of SARS-CoV Urbani / Binding of serum 6 to linear peptides of protein N of SARS-CoV Urbani / Binding of serum 37 to linear peptides of protein N of SARS-CoV Urbani / Binding of serum 6 to linear peptide (PEPSCAN-ELISA) / Binding of serum 1a to looped/cyclic peptides of protein N of SARS-CoV Urbani / Binding of serum 1b to looped/cyclic peptides of protein N of SARS-CoV Urbani / Binding of serum 2 to looped/cyclic peptides of protein N of SARS-CoV Urbani / Binding of serum 6 to looped/cyclic peptides of protein N of SARS-CoV Urbani / Binding of serum 37 to looped/cyclic peptides of protein N of SARS-CoV Urbani / Binding of serum 62 to looped/cyclic peptides of protein N of SARS-CoV Urbani / Binding of serum London to looped/cyclic peptides of protein N of SARS-CoV Urbani / Binding of serum SARS-green to looped/cyclic peptides of protein N of SARS-CoV Urbani: unit not given here
[2] = tested on: control sera (pooled serum of ten healthy LUMC hospital workers; commercial negative donor pooled serum from the Dutch bloodbank); assay type: binding, human; design: Binding of Control serum LUMC to linear peptides / Binding of Control serum Blood-bank to linear peptides / Binding of Control serum LUMC to looped peptides / Binding of Control Serum Blood-Bank to Looped peptides / Binding of Control serum LUMC to linear peptides of the protein M of SARS-CoV Urbani / Binding of Control serum Blood-bank to linear peptides of the protein M of SARS-CoV Urbani / Binding of Control serum LUMC to looped peptides of the protein M of SARS-CoV Urbani / Binding of Control Serum Blood-Bank to Looped peptides of the protein M of SARS-CoV Urbani: unit not given here
[3] = tested on: rabbit serum obtained by immunizing a rabbit with the SARS-CoV strain Frankfurt 1; assay type: binding; design: Binding of a rabbit serum to linear peptides / Binding of a rabbit serum to looped peptides / Rabbit serum linear peptides / Rabbit serum looped peptides / Binding of a rabbit serum to linear peptides of protein N of SARS-CoV Urbani (Rabbit serum linear peptides) / Binding of a rabbit serum to looped/cyclic peptides of protein N of SARS-CoV Urbani (Rabbit serum looped peptides): unit not given here

| Sequence | Binding of serum 1a to linear peptides of protein X1 of SARS-CoV Urbani [1] | Binding of serum 1a to looped/cyclic peptide (PEPSCAN-ELISA) [1] | Binding of serum 1b to linear peptides of protein X1 of SARS-CoV Urbani [1] | Binding of serum 1b to looped/cyclic peptide (PEPSCAN-ELISA) [1] | Binding of serum 2 to linear peptides of protein X1 of SARS-CoV Urbani [1] | Binding of serum 2 to looped/cyclic peptide (PEPSCAN-ELISA) [1] | Binding of serum 6 to linear peptides of protein X1 of SARS-CoV Urbani [1] | Binding of serum 6 to looped/cyclic peptide (PEPSCAN-ELISA) [1] | Binding of serum 37 to linear peptides of protein X1 of SARS-CoV Urbani [1] | Binding of serum 37 to looped/cyclic peptide (PEPSCAN-ELISA) [1] | Binding of serum 62 to linear peptides of protein X1 of SARS-CoV Urbani [1] | Binding of serum 62 to looped/cyclic peptide (PEPSCAN-ELISA) [1] | Binding of serum London to linear peptides of protein X1 of SARS-CoV Urbani [1] | Binding of serum London to looped/cyclic peptide (PEPSCAN-ELISA) [1] | Binding of serum SARS-green to linear peptides of protein X1 of SARS-CoV Urbani [1] | Binding of serum SARS-green to looped/cyclic peptide (PEPSCAN-ELISA) [1] | Binding of serum SARS-yellow to linear peptides of protein X1 of SARS-CoV Urbani [1] | Binding of serum SARS-yellow to looped/cyclic peptide (PEPSCAN-ELISA) [1] | Binding of Control Serum Blood-Bank to Looped peptides [2] | Binding of Control serum Blood-bank to linear peptides [2] | further results |
| --- | --- | --- | --- | --- | --- | --- | --- | --- | --- | --- | --- | --- | --- | --- | --- | --- | --- | --- | --- | --- | --- |
| YKGFQFICNLLLLFV | 0.9 | 0.3 | 0.8 | 0.0 | 0.9 | 0.0 | 0.9 | 0.3 | 0.7 | 0.2 | 1.0 | 0.3 | 0.8 | 0.2 | 0.4 | 0.3 | 0.6 | 0.0 | 0.4 | 1.0 | Binding of Control serum LUMC to linear peptides [2]: 0.8; Binding of Control serum LUMC to looped peptides [2]: 0.4; Binding of a rabbit serum to linear peptides [3]: 0.3; Binding of a rabbit serum to looped peptides [3]: 0.0 |
| YLYALIYFLQCINAC | 0.7 | 0.4 | 0.5 | 0.2 | 0.5 | 0.3 | 0.5 | 0.2 | 0.6 | 0.4 | 0.5 | 0.4 | 0.4 | 0.2 | 0.2 | 0.1 | 0.3 | 0.2 | 0.5 | 0.5 | Binding of Control serum LUMC to linear peptides [2]: 0.6; Binding of Control serum LUMC to looped peptides [2]: 0.5; Binding of a rabbit serum to linear peptides [3]: 0.1; Binding of a rabbit serum to looped peptides [3]: 0.4 |
